In patent US20240294467A1, “USP9X Inhibitors” (ProDeg, LLC, priority 2021, published 2024):
Read-outs that look alike come from different tables or passages of the source.

Tests used:
USP9X [1] = molecular target: T1, USP9X (Homo sapiens (Human), UniProt Q93008); test: USP9X enzyme activity assay, ubiquitin-rhodamine110 substrate
Target sequence in this assay (Q93008 whole entry): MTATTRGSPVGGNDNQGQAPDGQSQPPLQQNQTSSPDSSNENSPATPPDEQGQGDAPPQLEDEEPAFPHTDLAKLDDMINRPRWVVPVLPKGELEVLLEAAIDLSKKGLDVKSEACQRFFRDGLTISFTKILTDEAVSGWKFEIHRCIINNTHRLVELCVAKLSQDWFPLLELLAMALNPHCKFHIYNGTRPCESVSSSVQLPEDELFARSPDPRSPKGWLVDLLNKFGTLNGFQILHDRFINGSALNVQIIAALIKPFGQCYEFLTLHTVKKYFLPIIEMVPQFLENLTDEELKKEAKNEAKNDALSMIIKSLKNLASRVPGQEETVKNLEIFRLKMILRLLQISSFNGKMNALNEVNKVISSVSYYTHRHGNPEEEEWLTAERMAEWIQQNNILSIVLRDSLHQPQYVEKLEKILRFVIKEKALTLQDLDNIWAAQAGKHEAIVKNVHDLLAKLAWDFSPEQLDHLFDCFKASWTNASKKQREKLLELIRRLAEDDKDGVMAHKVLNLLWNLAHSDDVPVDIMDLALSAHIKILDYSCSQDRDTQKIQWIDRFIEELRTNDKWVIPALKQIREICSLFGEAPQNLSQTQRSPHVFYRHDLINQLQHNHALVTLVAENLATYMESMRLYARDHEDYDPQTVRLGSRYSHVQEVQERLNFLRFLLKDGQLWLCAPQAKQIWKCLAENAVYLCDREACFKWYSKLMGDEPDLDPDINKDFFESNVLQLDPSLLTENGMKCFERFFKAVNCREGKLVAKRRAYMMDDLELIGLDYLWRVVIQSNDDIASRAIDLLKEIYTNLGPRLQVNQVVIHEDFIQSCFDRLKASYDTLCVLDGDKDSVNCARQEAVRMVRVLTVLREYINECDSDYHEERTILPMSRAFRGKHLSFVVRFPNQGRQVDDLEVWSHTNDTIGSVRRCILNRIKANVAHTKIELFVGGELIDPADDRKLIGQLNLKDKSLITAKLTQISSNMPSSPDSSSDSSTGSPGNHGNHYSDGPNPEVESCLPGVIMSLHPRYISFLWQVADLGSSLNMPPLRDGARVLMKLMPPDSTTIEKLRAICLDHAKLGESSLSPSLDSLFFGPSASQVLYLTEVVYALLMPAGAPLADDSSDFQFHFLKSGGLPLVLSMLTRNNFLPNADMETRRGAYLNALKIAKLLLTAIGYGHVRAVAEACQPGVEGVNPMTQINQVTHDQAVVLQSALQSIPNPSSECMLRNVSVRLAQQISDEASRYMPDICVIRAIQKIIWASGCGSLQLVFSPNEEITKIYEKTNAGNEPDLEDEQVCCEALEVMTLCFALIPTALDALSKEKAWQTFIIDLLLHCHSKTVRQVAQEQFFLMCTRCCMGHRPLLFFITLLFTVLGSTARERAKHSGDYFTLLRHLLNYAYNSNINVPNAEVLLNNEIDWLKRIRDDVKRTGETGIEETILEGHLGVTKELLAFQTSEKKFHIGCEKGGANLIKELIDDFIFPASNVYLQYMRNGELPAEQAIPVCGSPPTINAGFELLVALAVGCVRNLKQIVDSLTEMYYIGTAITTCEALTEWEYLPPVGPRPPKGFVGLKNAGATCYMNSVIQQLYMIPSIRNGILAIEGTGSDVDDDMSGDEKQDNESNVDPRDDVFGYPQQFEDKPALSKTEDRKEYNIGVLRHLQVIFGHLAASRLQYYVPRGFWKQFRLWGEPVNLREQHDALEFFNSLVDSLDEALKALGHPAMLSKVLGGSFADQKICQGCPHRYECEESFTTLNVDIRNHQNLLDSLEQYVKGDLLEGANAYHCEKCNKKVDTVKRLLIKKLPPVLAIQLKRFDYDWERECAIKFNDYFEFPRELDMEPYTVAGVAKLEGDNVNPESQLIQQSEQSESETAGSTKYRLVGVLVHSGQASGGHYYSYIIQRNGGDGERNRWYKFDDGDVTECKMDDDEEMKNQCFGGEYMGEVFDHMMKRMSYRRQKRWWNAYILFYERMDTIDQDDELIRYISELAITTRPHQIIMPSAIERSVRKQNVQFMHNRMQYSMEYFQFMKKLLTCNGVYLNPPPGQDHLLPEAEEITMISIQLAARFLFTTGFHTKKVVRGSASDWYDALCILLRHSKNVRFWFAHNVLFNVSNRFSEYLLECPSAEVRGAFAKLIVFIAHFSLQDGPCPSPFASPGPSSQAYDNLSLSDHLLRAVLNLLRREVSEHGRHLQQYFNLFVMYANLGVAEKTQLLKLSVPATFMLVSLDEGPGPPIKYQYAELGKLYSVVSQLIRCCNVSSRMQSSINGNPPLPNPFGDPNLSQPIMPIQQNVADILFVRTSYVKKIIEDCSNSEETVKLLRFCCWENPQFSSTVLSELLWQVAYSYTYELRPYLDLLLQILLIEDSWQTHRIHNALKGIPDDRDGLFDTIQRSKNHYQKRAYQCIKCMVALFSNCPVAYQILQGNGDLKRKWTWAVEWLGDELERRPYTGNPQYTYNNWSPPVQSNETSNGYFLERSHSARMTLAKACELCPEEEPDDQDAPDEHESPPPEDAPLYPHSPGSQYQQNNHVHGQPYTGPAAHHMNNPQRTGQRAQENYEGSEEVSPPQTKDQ
Description: The inhibition property of compound Compound 1A was evaluated in assays measuring the ability of USP9X to catalyze the hydrolysis of the amide bond between the C terminal carboxylate of ubiquitin and rhodamine110 of the fluorogenic substrate ubiquitin-rhodamine 110. To the wells of a 96 well reaction plate was added 12.5 μL USP9X solution (1.3 nM) in assay buffer (100 mM NaCl, 1 mM DTT, 0.1% bovine serum albumin, 0.05% Tween 20, 50 mM Tris, pH 7.5). 12.5 μL of Compound 1A in assay buffer (4×final concentration) was added to the wells containing the USP9X solution, and the solution was gently mixed by pipetting up and down several times. The plate was sealed and incubated at room temperature for 20 minutes.
Then 25 μL of the 1 μM substrate (ubiquitin-rhodaminel10) solution was added in assay buffer. The final substrate concentration was 0.5 μM. […] The slope for the rate of change of the fluorescence was determined and plotted vs the concentration of Compound 1A.
USP9X enzyme assays were set up in a 96 well plate to assess the abilities of Compound 3A and Compound 4A to inhibit the activity of USP9X, respectively. Ubiquitin-rhodamine110 was used as the substrate and ubiquitin aldehyde was included in the assay as a positive control.
Purified recombinant USPx9 (R&D Systems) in 50 mM Tris buffer pH 7.5, 1 mM DTT, 100 mM NaCl, 0.05% Tween 20 and 0/1% BSA is used at a concentration of 0.325 nM with 0.5 μM ubiquitin-rhodamine (R&D Systems).

carbonic anhydrase = test: Biacore binding to immobilized carbonic anhydrase (non-specific binding control)
USP9X [2] = molecular target: T1, USP9X; test: Biacore T200 surface plasmon resonance binding to immobilized USP9X; conditions: 25° C.
Source text: The terms “inhibit” as used herein with respect to the activity of the USP9X inhibitor, refer to the ability to substantially antagonize, prohibit, prevent, restrain, slow, disrupt, alter, eliminate, stop, or reverse the progression or severity of, for example, the catalytic activity of a DUB such as USP9X, the survival or proliferation of a cancer cell, or a disease or condition associated with USP9X. […] In some embodiments, the compounds as described can inhibit USP9X by binding to an active site of USP9X. […] The binding activity is determined with a standard binding assay, such as a Biacore surface plasmon resonance instrument. […] The binding affinity KD is determined using a Biacore T200 instrument (GE Healthcare, Biacore). Ubiquitin aldehyde can be used as a reference in analyzing the inhibition results determined via Biacore. […]
USP9X was immobilized on a chip for surface plasmon resonance measurements via Biacore T200. Solutions of compound Compound 2A at various concentrations were flowed over the immobilized USP9X and the change in refractive index was monitored. […] The values of the maximum response for each concentration of Compound 2A were plotted and were consistent with a binding of the compound to a single site on USP9X with a dissociation equilibrium constant of 1.9 μM in reasonable agreement with value determined from the kinetic association and dissociation rates.
Target sequence in this assay (Q93008 whole entry): as above

USP9X [3] = molecular target: T1, USP9X; test: Steady-state enzyme inhibition kinetics of USP9X; assay type: biochemical
Source text: The data were fit to a general model for enzyme inhibition (FIG. 1E) so the values of the parameters determined from the assays specified the mode of inhibition. For example, in the case of α=1 and β=0, it corresponded to purely non-competitive inhibition. For α=infinity and p=1, it corresponded to purely competitive inhibition. The values of all the parameters, KS, KI, kcat, α, and β could be determined from the steady state measurements. The enzyme reactions were set up as described in the Inhibiting the catalytic activity of USP9X section. The concentration of the substrate ubqiutin-rhodamine110 was varied. The initial rates of the reactions were determined at several concentrations of the inhibitor Compound 2A. In order to determine the values of the parameters KS and kcat, the reaction rates in the absence of the inhibitor Compound 2A, the initial reaction rate data were fit to the standard Michaelis-Menten equation v=Vmax [S]/(Km+[S]). The values of α and β could then be determined by fitting the initial rate data of the enzyme reaction at various concentrations of Compound 2A to a modified version of the Michaelis-Menten equation, designating both Vmax and KS apparent to distinguish the apparent values of the parameters determined from these plots to the true values for these parameters determined from the steady state kinetics in the absence of Compound 2A. The values of α and β could be determined from the variation of the slopes and intercepts of the series of double reciprocal plots of 1/v versus 1/[S] for each concentration of Compound 2A. […] The two values determined for KI were from the two different plots.
The two values for KI were determined by two different methods for determining this parameter from the kinetic data: 1 represented a value determined from the slope of the 1/A intercept vs 1/[I] plot; 2 represented a value determined from the y intercept of the 1/A slope vs 1/[I] plot. […] Only the values of the parameters varied for the compounds.
Target sequence in this assay (Q93008 whole entry): as above

USP14 = USP14 (Homo sapiens (Human), UniProt P54578); conditions: cited from earlier work
BT-549 = test: ONCOLINES Profiler proliferation; assay type: cell-based, human; conditions: BT-549, breast ductal carcinoma
Source text: (§1) The compounds were profiled on an ONCOLINES™ Profiler (Netherlands Translational Research Center) assayed with 66 cancer cell lines to determine if they were capable of inhibiting the proliferation of these cancer cells.
(§2) To further evaluate potency of the compounds, they were compared with the USP9X inhibitor WP 1130 by screening both the compounds and WP1130 on a 66-cancer cell line panel ONCOLINES™ Profiler.

USP5 = USP5 (Homo sapiens (Human), UniProt P45974); conditions: cited from earlier work
66 cancer cell lines = test: ONCOLINES Profiler, whole panel; assay type: cell-based; conditions: in 3 of 66 cell lines
Source text: The sensitivities of multiple cancer cells can be determined by screening the compounds on a cancer cell line panel, such as an ONCOLINES™ Profiler (Netherlands Translational Research Center) assayed with various tumor cell lines. For more information on ONCOLINES™ methods, see https://www.oncolines.com/oncolines/oncolines-explained-facts/. […] For example, Compound 7A inhibited the proliferation of 57 of the 66 cell lines being tested. […] “A tumor cell line sensitive to the compounds” is referred to that the proliferation of a tumor cell line, when contacted with the compounds, is inhibited by at least 50%, at least 60%, at least 70%, at least 80%, at least 85%, at least 90%, at least 91%, at least 92%, at least 93%, at least 94%, at least 95%, at least 96%, at least 97%, at least 98%, at least 99%, or 100%.
as §1, §2

UCH37 = UCH37 (Homo sapiens (Human), UniProt Q9Y5K5); conditions: cited from earlier work
UCH-L1 = UCH-L1 (Homo sapiens (Human), UniProt P09936); conditions: cited from earlier work
DU 145 = test: ONCOLINES Profiler proliferation; assay type: cell-based; conditions: DU 145, prostate carcinoma
Source text: as §1, §2

Hs 57BT = test: ONCOLINES Profiler proliferation; assay type: cell-based; conditions: Hs 57BT (Hs578T), breast carcinoma
Source text: as §1, §2

H82 = test: ONCOLINES Profiler proliferation; assay type: cell-based; conditions: H82, small cell lung
Source text: as §1, §2

CCRF-CEM = test: ONCOLINES Profiler proliferation; assay type: cell-based; conditions: acute lymphoblastic leukemia
Source text: as §1, §2

LoVo = test: ONCOLINES Profiler proliferation; assay type: cell-based; conditions: colorectal adenocarcinoma
Source text: as §1, §2

BT-20 = test: ONCOLINES Profiler proliferation; assay type: cell-based; conditions: BT-20, breast carcinoma
Source text: as §1, §2

A549 = test: ONCOLINES Profiler proliferation; assay type: cell-based; conditions: A549, lung
Source text: as §1, §2

RPMI-7951 = test: ONCOLINES Profiler proliferation; assay type: cell-based; conditions: RPMI-7951, malignant melanoma
Source text: as §1, §2

A-172 = test: ONCOLINES Profiler proliferation; assay type: cell-based; conditions: A-172, glioblastoma
Source text: as §1, §2

RKO = test: ONCOLINES Profiler proliferation; assay type: cell-based; conditions: colon carcinoma
Source text: as §1, §2

MOLT-4 = test: ONCOLINES Profiler proliferation; assay type: cell-based; conditions: MOLT-4, acute lymphoblastic leukemia
Source text: as §1, §2

USP9X [4] = molecular target: T1, USP9X; conditions: cited from earlier work
Target sequence in this assay (Q93008 whole entry, species assumed): as the sequence (Q93008 whole entry) above

Chain of UCH-L1 (P09936 whole entry, species assumed): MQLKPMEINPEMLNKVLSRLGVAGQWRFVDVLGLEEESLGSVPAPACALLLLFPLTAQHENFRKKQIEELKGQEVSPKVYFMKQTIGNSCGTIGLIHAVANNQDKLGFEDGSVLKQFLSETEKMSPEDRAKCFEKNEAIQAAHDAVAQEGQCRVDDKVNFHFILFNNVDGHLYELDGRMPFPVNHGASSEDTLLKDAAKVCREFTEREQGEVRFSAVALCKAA
Chain of UCH37 (Q9Y5K5 whole entry, species assumed): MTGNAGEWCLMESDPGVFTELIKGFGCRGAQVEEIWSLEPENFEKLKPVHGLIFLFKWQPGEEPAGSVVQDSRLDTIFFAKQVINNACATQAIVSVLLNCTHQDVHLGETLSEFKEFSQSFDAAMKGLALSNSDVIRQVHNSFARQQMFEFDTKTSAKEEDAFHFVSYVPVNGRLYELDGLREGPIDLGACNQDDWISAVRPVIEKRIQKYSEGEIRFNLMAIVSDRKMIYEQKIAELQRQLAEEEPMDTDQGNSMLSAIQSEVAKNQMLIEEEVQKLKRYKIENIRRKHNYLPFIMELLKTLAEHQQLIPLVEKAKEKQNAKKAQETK
Chain of USP5 (P45974 whole entry, species assumed): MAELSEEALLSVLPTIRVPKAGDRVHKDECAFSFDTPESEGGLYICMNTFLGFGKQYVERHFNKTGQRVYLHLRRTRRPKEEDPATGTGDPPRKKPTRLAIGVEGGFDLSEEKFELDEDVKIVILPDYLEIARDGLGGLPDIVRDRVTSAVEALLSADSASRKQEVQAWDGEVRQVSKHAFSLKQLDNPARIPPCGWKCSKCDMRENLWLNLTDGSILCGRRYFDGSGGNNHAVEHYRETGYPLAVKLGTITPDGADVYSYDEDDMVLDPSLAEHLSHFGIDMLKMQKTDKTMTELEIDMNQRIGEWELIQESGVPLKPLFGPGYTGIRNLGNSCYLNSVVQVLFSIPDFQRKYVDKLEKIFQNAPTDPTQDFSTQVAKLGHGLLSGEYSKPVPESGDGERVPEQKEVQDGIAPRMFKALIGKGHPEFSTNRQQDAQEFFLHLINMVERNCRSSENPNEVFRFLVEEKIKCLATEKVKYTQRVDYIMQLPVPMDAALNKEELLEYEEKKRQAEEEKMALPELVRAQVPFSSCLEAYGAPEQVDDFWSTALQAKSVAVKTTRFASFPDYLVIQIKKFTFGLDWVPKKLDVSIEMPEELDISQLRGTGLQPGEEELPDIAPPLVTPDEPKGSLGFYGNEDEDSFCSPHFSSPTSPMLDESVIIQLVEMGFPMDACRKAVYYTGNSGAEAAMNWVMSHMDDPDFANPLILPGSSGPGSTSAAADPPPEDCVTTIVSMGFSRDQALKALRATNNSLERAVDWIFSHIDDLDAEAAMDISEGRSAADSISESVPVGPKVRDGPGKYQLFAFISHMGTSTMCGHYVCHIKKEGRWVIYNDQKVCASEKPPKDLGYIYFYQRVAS
Chain of USP14 (P54578 whole entry, species assumed): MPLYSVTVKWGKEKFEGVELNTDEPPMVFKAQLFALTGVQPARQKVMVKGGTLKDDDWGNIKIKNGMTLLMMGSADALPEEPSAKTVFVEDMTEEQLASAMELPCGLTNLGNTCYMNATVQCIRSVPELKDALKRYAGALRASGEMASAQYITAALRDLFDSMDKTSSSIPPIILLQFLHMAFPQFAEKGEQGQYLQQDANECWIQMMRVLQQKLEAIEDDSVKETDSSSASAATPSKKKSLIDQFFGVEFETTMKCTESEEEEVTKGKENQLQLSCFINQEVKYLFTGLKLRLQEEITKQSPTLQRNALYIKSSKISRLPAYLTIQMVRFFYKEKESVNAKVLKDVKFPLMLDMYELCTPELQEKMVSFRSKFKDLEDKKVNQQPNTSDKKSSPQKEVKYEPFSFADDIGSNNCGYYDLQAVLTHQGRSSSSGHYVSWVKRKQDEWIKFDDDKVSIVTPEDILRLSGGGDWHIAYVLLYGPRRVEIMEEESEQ

SMILES: CC(C)(C)C[C@@H]1NC(=O)c2cccc(c2)CNC(=O)c2ccc(cc2)OCCNC(=O)CC(C)(C)CC(=O)N[C@H](C(=O)O)Cc2ccc(cc2)NC1=O [Compound 2A]
- reduction of USP9X activity (USP9X [1]; higher concentrations of compound (>10 μM)): approximately 60%
- IC50 (USP9X [1]; read-out: IC50 for the inhibition of USP9X activity, ubiquitin-rhodamine110 substrate): 390 nM
- IC50 (USP9X [1]; read-out: USP9X IC50 nM, Table 2): 390 nM
- binding to immobilized carbonic anhydrase (carbonic anhydrase): did not bind
- Kd (USP9X [2]; read-out: dissociation equilibrium constant from maximum response vs concentration, single site): 1.9 µM
- Kd (USP9X [2]; read-out: equilibrium dissociation constant KD from ratio of dissociation to association rate constant): 0.48 µM
- KS (USP9X [3]): 0.95 µM
- VMAX RFU/min (USP9X [3]): 310 RFU/min
- mode of inhibition (USP9X [3]): hyperbolic mixed inhibition
- α (USP9X [3]): 1.73
- β (USP9X [3]): 0.71
- Ki (USP9X [3]; from the slope of the 1/Δ intercept vs 1/[I] plot, read-out: KI, nM (1)): 120 nM
- Ki (USP9X [3]; from the y intercept of the 1/Δ slope vs 1/[I] plot, read-out: KI, nM (2)): 290 nM

SMILES: CCC[C@H](NC(=O)/C(C#N)=C/c1cccc(Br)n1)c1ccccc1 [WP1130, reference compound]
- inhibits USP14 (USP14): inhibited
- IC50 (BT-549): 5.4 µM
- inhibits USP5 (USP5): inhibited
- fold more potent than Compound 7A (66 cancer cell lines): above 4 fold
- inhibits UCH37 (UCH37): inhibited
- inhibits UCH-L1 (UCH-L1): inhibited
- IC50 (DU 145): 9.6 µM
- IC50 (Hs 57BT): 6.3 µM
- IC50 (H82): 6.6 µM
- IC50 (CCRF-CEM): 4.4 µM
- IC50 (LoVo): 5.5 µM
- IC50 (BT-20): 5.1 µM
- IC50 (A549): 14 µM
- IC50 (RPMI-7951): 4.2 µM
- IC50 (A-172): 5.6 µM
- IC50 (RKO): 4.3 µM
- IC50 (MOLT-4): 4 µM
- inhibits USP9X (USP9X [4]): inhibited
